Read-outs that look alike come from different tables or passages of the source.
Columns and labels:
patients with HD [1] = test system: patients with HD;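 for Change from baseline in UHDRS TFC Finance ADL, Δ to placebo: UHDRS Total Functional Capacity items for finances and ADL, each scored 0 to 3, where 3 means normal function and 0 means unable (finances) or total care (ADL)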;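 for Δ to placebo: UHDRS TFC Finance and ADL score, change from baseline: UHDRS Total Functional Capacity items for finances and ADL, each scored 0 to 3, where 3 means normal function and 0 means unable (finances) or total care (ADL)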
Protocol: The PBA-s is a brief semi-structured interview covering the most common behavioral and psychiatric manifestations of HD. […] Severity and frequency scores are multiplied to produce an overall ‘PBA score’ for each symptom.
The PBA-s is a brief semi-structured interview covering the most common behavioral and psychiatric manifestations of HD.
The total PBA score is calculated by the sum of all PBA-s scores across symptoms/domains.

patients with HD [2] = test system: patients with HD; remark: listed apart in the source;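 for Δ to placebo: UHDRS TFC Finance and ADL score, change from baseline: UHDRS Total Functional Capacity items for finances and ADL, each scored 0 to 3, where 3 means normal function and 0 means unable (finances) or total care (ADL)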
Protocol: The CAB may be used to detect symptomatic, “pro-cognitive” effects (6 months-1 year) and slowing rate of cognitive decline (>1 year). […] The CAB covers domains most impacted in HD, using tests with good psychometric properties. The following six sections describe the tests that are part of the CAB brief. • 1. Symbol Digit Modalities Test
Psychomotor function is assessed in a Paced Tapping test (also known as PTAP). Participants tap on left and right mouse buttons, alternating between thumbs, at 3.0 Hz. They first listen to a tone presented at the desired tapping rate, and then begin tapping to the tone. After 11 taps with the tone, the repetition of the tone is discontinued, and participants attempt to continue tapping at the same rate until the end of the trial (31 taps later). • 6. One Touch Stockings of Cambridge (OTS)

patients with HD [3] = settings: week 52
Text: Motor deficits can be objectively assessed using different Q-Motor assessments. All Q-Motor assessments are based on the application of precalibrated and temperature controlled force transducers and 3-dimensional position sensors with very high sensitivity and test-retest reliability across sessions and sites in a multicenter clinical study. Q-Motor measures thus aim to reduce the limited sensitivity of categorical clinical rating scales, the intra- and inter-rater variability, and placebo effects observed in scales such as UHDRS-TMS. In addition, Q-Motor assessments allow for the objective monitoring of unintended motor side-effects in clinical studies. Thus, Q-Motor is an objective, reliable, and sensitive measure of motor function that is free of rater bias and limits placebo effect influence.
This task assesses the regularity of hand taps performed when alternating between the palm and dorsal surface of the hand performing a repetitive pronation/supination movement. The force and duration of the hand taps are recorded similarly to the speeded tapping task. A tone cues the start and end of an assessment. Five trials of 10 seconds duration are performed with each hand.

patients with HD [4] = test system: patients with HD; remark: listed apart in the source;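 for Δ to placebo: UHDRS TFC Finance and ADL score, change from baseline: UHDRS Total Functional Capacity items for finances and ADL, each scored 0 to 3, where 3 means normal function and 0 means unable (finances) or total care (ADL)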

For `CCCN1CCC(c2cccc(S(C)(=O)=O)c2)CC1` [pridopidine, 4-[3-(methylsulfonyl)phenyl]-1-propyl-piperidine], the “PBA Lack of Initiative (Apathy), Severity×Frequency, change from baseline, Δ to placebo” value (from here on “PBA Lack … change from baseline, Δ to placebo”) (patients with HD [1]; 45 mg bid, Week 26, ALL, p value 0.1235) was −0.87, the “PBA Lack … change from baseline, Δ to placebo” value (patients with HD [1]; 45 mg bid, Week 26, Stage 1 BL TFC 11-13, p value 0.0703) was −1.85 and the “Problems Behavioral Assessment apathy sub-score compared with placebo” value (patients with HD [1]; 45 mg bid, early HD patients, week 52) was “improved”. For the same compound, the “PBA Lack … change from baseline, Δ to placebo” value (patients with HD [1]; 67.5 mg bid (printed head, heads shifted), Week 52, BL TFC>7, p value 0.0608) was −1.39, the “PBA Lack … change from baseline, Δ to placebo” value (patients with HD [1]; 67.5 mg bid (printed head, heads shifted), Week 52, Full analysis set, p value 0.0704) was −1.27 and the “PBA Lack … change from baseline, Δ to placebo” value (patients with HD [1]; 67.5 mg bid, Week 26, ALL, p value 0.3437) was −0.53. The “PBA Lack … change from baseline, Δ to placebo” value (patients with HD [1]; 67.5 mg bid, Week 26, Stage 1 BL TFC 11-13, p value 0.1267) was −1.51, the “PBA Lack … change from baseline, Δ to placebo” value (patients with HD [1]; 90 mg bid (printed head, heads shifted), Week 52, BL TFC>7, p value 0.703) was −0.29 and the “PBA Lack … change from baseline, Δ to placebo” value (patients with HD [1]; 90 mg bid (printed head, heads shifted), Week 52, Full analysis set, p value 0.7052) was 0.26. For the same compound, the “PBA Lack … change from baseline, Δ to placebo” value (patients with HD [1]; 90 mg bid, Week 26, ALL, p value 0.7198) was −0.2, the “PBA Lack … change from baseline, Δ to placebo” value (patients with HD [1]; 90 mg bid, Week 26, Stage 1 BL TFC 11-13, p value 0.1822) was −1.46 and the “PBA Lack … change from baseline, Δ to placebo” value (patients with HD [1]; 112.5 mg bid (printed head, heads shifted), Week 52, BL TFC>7, p value 0.9734) was −0.02. For the same compound, the “PBA Lack … change from baseline, Δ to placebo” value (patients with HD [1]; 112.5 mg bid (printed head, heads shifted), Week 52, Full analysis set, p value 0.8599) was −0.12, the “PBA Lack … change from baseline, Δ to placebo” value (patients with HD [1]; 112.5 mg bid, Week 26, ALL, p value 0.6445) was −0.26 and the “PBA Lack … change from baseline, Δ to placebo” value (patients with HD [1]; 112.5 mg bid, Week 26, Stage 1 BL TFC 11-13, p value 0.0089) was −2.62. The “PBA Lack … change from baseline, Δ to placebo” value (patients with HD [1]; Placebo (printed head, heads shifted), Week 52, BL TFC>7, p value 0.7346) was 0.26, the “PBA Lack … change from baseline, Δ to placebo” value (patients with HD [1]; Placebo (printed head, heads shifted), Week 52, Full analysis set, p value 0.9523) was −0.04 and the “Paced Tapping at 3 Hz, change from baseline” value (patients with HD [2]; 45 mg bid, full analysis set, week 52) was “Positive findings indicating potential improvement from baseline”. For the same compound, the “Δ to placebo: CAB Paced Tapping at 3 Hz, change from baseline” value (patients with HD [2]; 45 mg bid, week 26) was 0.4736, the “Δ to placebo: CAB Paced Tapping at 3 Hz, change from baseline” value (patients with HD [2]; 45 mg bid, week 52) was 1.3234 and the “Δ to placebo: CAB Paced Tapping at 3 Hz, change from baseline” value (patients with HD [2]; 67.5 mg bid, week 26) was −0.041. For the same compound, the “Δ to placebo: CAB Paced Tapping at 3 Hz, change from baseline” value (patients with HD [2]; 67.5 mg bid, week 52) was 0.3701, the “Δ to placebo: CAB Paced Tapping at 3 Hz, change from baseline” value (patients with HD [2]; 90 mg bid, week 26) was 0.1975 and the “Δ to placebo: CAB Paced Tapping at 3 Hz, change from baseline” value (patients with HD [2]; 90 mg bid, week 52) was 0.2659. For the same compound, the “Δ to placebo: CAB Paced Tapping at 3 Hz, change from baseline” value (patients with HD [2]; 112.5 mg bid, week 26) was 0.9515, the “Δ to placebo: CAB Paced Tapping at 3 Hz, change from baseline” value (patients with HD [2]; 112.5 mg bid, week 52) was 0.1523 and the “Wk 52 Δ to placebo: Q-Motor Pro-Sup-Frequency-MN-Hand, change from baseline” value (shortened to “Wk 52 Δ to placebo … change from baseline”) (patients with HD [3]; 45 mg bid, FAS) was 0.0599 Hz. For the same compound, the “Wk 52 Δ to placebo … change from baseline” value (patients with HD [3]; 45 mg bid, HD1 and HD2 patients) was 0.1195 Hz, the “Wk 52 Δ to placebo … change from baseline” value (patients with HD [3]; 67.5 mg bid, FAS) was −0.0124 Hz and the “Wk 52 Δ to placebo … change from baseline” value (patients with HD [3]; 67.5 mg bid, HD1 and HD2 patients) was 0.0548 Hz. For the same compound, the “Wk 52 Δ to placebo … change from baseline” value (patients with HD [3]; 90 mg bid, FAS) was −0.0087 Hz, the “Wk 52 Δ to placebo … change from baseline” value (patients with HD [3]; 90 mg bid, HD1 and HD2 patients) was 0.0575 Hz and the “Wk 52 Δ to placebo … change from baseline” value (patients with HD [3]; 112.5 mg bid, FAS) was 0.0127 Hz. The “Wk 52 Δ to placebo … change from baseline” value (patients with HD [3]; 112.5 mg bid, HD1 and HD2 patients) was 0.08 Hz, the “Δ to placebo: UHDRS TFC Finance and ADL score, change from baseline” value (patients with HD [4]; 45 mg bid, BL CAG Repeat >44, week 26) was 0.55 and the “Δ to placebo: UHDRS TFC Finance and ADL score, change from baseline” value (patients with HD [4]; 45 mg bid, BL TFC≥9, week 26) was 0.53. For the same compound, the “Δ to placebo: UHDRS TFC Finance and ADL score, change from baseline” value (patients with HD [4]; 45 mg bid, BL TFC≥9 and BL TMS 1st 3 Qs, week 26) was 0.53, the “Δ to placebo: UHDRS TFC Finance and ADL score, change from baseline” value (patients with HD [4]; 45 mg bid, BL TFC≥9 and CAG Repeat >44, week 26) was 0.74 and the “Δ to placebo: UHDRS TFC Finance and ADL score, change from baseline” value (patients with HD [4]; 45 mg bid, BL TFC≥9 and CAG Repeats <44 and BL TMS 1st 3 Qs, week 26) was 0.74. The “Δ to placebo: UHDRS TFC Finance and ADL score, change from baseline” value (patients with HD [4]; 45 mg bid, BL TFC≥9 or CAG Repeat >44, week 26) was 0.5, the “Δ to placebo: UHDRS TFC Finance and ADL score, change from baseline” value (patients with HD [4]; 45 mg bid, CAG Repeats <44 and BL TMS 1st 3 Qs, week 26) was 0.59 and the “Δ to placebo: UHDRS TFC Finance and ADL score, change from baseline” value (patients with HD [4]; 45 mg bid, TMS 1st 2Qs, week 26) was 0.48. For the same compound, the “Δ to placebo: UHDRS TFC Finance and ADL score, change from baseline” value (patients with HD [4]; 45 mg bid, TMS 1st 2Qs, week 52) was 0.47, the “Δ to placebo: UHDRS TFC Finance and ADL score, change from baseline” value (patients with HD [4]; 45 mg bid, TMS 1st 3Qs, week 26) was 0.18 and the “Δ to placebo: UHDRS TFC Finance and ADL score, change from baseline” value (patients with HD [4]; 45 mg bid, TMS 1st 3Qs, week 52) was 0.52. For the same compound, the “Δ to placebo: UHDRS TFC Finance and ADL score, change from baseline” value (patients with HD [4]; 45 mg bid, TMS 1st Q, week 26) was 0.63, the “Δ to placebo: UHDRS TFC Finance and ADL score, change from baseline” value (patients with HD [4]; 45 mg bid, TMS 1st Q, week 52) was 0.71 and the “Change from baseline in UHDRS TFC Finance ADL, Δ to placebo” value (patients with HD [4]; 45 mg bid, Week 26, ALL) was 0.22. The “UHDRS TFC Finance ADL, change from baseline, Δ to placebo” value (patients with HD [4]; 45 mg bid, Week 26, BL TFC<7, p value 0.3239) was −0.34, the “UHDRS TFC Finance ADL, change from baseline, Δ to placebo” value (patients with HD [4]; 45 mg bid, Week 26, BL TFC≥7, p value 0.0114) was 0.46 and the “Change from baseline in UHDRS TFC Finance ADL, Δ to placebo” value (patients with HD [4]; 45 mg bid, Week 26, Stage 1 BL TFC 11-13) was 0.92. For the same compound, the “Change from baseline in UHDRS TFC Finance ADL, Δ to placebo” value (patients with HD [4]; 45 mg bid, Week 26, Stage 2 BL TFC 7-10 (FIG. 11c)) was 0.33, the “Change from baseline in UHDRS TFC Finance ADL, Δ to placebo” value (patients with HD [4]; 45 mg bid, Week 26, Stage 2 BL TFC 7-10 (FIG. 11f)) was 0.7 and the “Change from baseline in UHDRS TFC Finance ADL, Δ to placebo” value (patients with HD [4]; 45 mg bid, Week 52, ALL) was 0.46. For the same compound, the “UHDRS TFC Finance ADL, change from baseline, Δ to placebo” value (patients with HD [4]; 45 mg bid, Week 52, BL TFC<7, p value 0.9863) was 0.01, the “UHDRS TFC Finance ADL, change from baseline, Δ to placebo” value (patients with HD [4]; 45 mg bid, Week 52, BL TFC≥7, p value 0.0004) was 0.72 and the “Change from baseline in UHDRS TFC Finance ADL, Δ to placebo” value (patients with HD [4]; 45 mg bid, Week 52, Stage 1 BL TFC 11-13) was 0.77. The “Δ to placebo: UHDRS TFC Finance and ADL score, change from baseline” value (patients with HD [4]; 67.5 mg bid, BL CAG Repeat >44, week 26) was 0.21, the “Δ to placebo: UHDRS TFC Finance and ADL score, change from baseline” value (patients with HD [4]; 67.5 mg bid, BL TFC≥9, week 26) was 0.23 and the “Δ to placebo: UHDRS TFC Finance and ADL score, change from baseline” value (patients with HD [4]; 67.5 mg bid, BL TFC≥9 and BL TMS 1st 3 Qs, week 26) was 0.18. The “Δ to placebo: UHDRS TFC Finance and ADL score, change from baseline” value (patients with HD [4]; 67.5 mg bid, BL TFC≥9 and CAG Repeat >44, week 26) was 0.57, the “Δ to placebo: UHDRS TFC Finance and ADL score, change from baseline” value (patients with HD [4]; 67.5 mg bid, BL TFC≥9 and CAG Repeats <44 and BL TMS 1st 3 Qs, week 26) was 0.57 and the “Δ to placebo: UHDRS TFC Finance and ADL score, change from baseline” value (patients with HD [4]; 67.5 mg bid, BL TFC≥9 or CAG Repeat >44, week 26) was 0.08.

From patent US11207310B2 (PRILENIA NEUROTHERAPEUTICS LTD., priority 2016, dated 2021)
